These compounds were tested on Male C57B6 mice (assay: Murine model of myocardial infarction resulting from an ischemia-reperfusion episode). Conditions: 3 mg/kg intravenously 5 minutes before reperfusion; 45 min coronary occlusion, 24 hours of reperfusion; compared with the vehicle.
Format: in vivo
Experimental: 3) Evaluation of the Compounds in Accordance with the Invention in a Murine Model of Myocardial Infarction Resulting from an Ischemia-Reperfusion Episode
Male C57B6 mice (23-26 g) are anaesthetized (ketamine 1 g/kg+xylazine 0.02 g/kg, IP) and placed under respiratory assistance before being subjected to a thoracotomy targeted at exposing the heart. Cardiac ischemia is then induced by the transient ligation of the left coronary artery. After 45 minutes of coronary occlusion, the ligature is removed in order to make possible reperfusion of the region rendered ischemic. After closing the thorax and restoring the pleural cavity, the animals are placed in a revival cage.
Test compounds Nos 11, 56, 233 and 309 are administered 5 minutes before reperfusion intravenously at a dose of 3 mg/kg and compared with the vehicle (7.5% Cremophor RH40+22.5% glycofurol in a physiological serum solution).
After 24 hours of cardiac reperfusion, the animals are again anaesthetized (ketamine 1 g/kg+xylazine 0.02 g/kg, IP) before intravenously receiving sodium nitroprusside (1 mg/ml at 1 ml/min for 4 minutes) in order to dilate the coronary vasculature. The left coronary artery is religatured and a solution of Evans blue (3%, 200 to 300 μl) is injected by carotid retroperfusion in order to determine the region at ventricular risk. The heart is then removed and immersed in a saturated KCl solution in order to stop it in diastole. Transverse sections of 1 mm are produced, incubated in triphenyltetrazolium chloride (1% in PBS) at 37° C. for 2 minutes and then placed in formaldehyde (4%) overnight. The tetrazolium salt makes it possible to visualize the viable region within the region at risk. The surface area of the infarction with respect to the region at risk is determined by image analysis.

SMILES	reduction of the size of the infarction, expressed with respect to the region at risk [%]
COc1ccc(Cn2c(=O)c3cc(OC(CF)CF)ccc3n(C3CCN(C=O)CC3)c2=O)cc1OC [No. 11, 4-[3-(3,4-dimethoxybenzyl)-6-[2-fluoro-1-(fluoromethyl)ethoxy]-2,4-dioxo-3,4-dihydroquinazolin-1(2H)-yl]piperidine-1-carbaldehyde]	43
COc1cc(Cn2c(=O)c3cc(OC(CF)CF)ccc3n(C3CCN(C=O)CC3)c2=O)ccc1OC1CCCC1 [No. 56, 4-{3-[4-(cyclopentyloxy)-3-methoxybenzyl]-6-[2-fluoro-1-(fluoromethyl)ethoxy]-2,4-dioxo-3,4-dihydroquinazolin-1(2H)-yl}piperidine-1-carbaldehyde]	33
COc1ccc(Cn2c(=O)c3cc(OC(CF)CF)c(F)cc3n(C3CCN(C=O)CC3)c2=O)cc1OC [No. 233, 4-[3-(3,4-dimethoxybenzyl)-7-fluoro-6-[2-fluoro-1-(fluoromethyl)ethoxy]-2,4-dioxo-3,4-dihydroquinazolin-1(2H)-yl]piperidine-1-carbaldehyde]	40
COc1cc(Cn2c(=O)c3cc(OC(CF)CF)c(F)cc3n(C3CCN(C=O)CC3)c2=O)ccc1OCC1CC1 [No. 309, 4-{3-[4-(cyclopropylmethoxy)-3-methoxybenzyl]-7-fluoro-6-[2-fluoro-1-(fluoromethyl)ethoxy]-2,4-dioxo-3,4-dihydroquinazolin-1(2H)-yl}piperidine-1-carbaldehyde]	32

These compounds were tested on PDE8 (assay: PDE8 enzymatic assay equivalent to that described for PDE7). Conditions: not given.
Format: biochemical
Excerpt: 2) Measurement of the Inhibitory Activity of the Compounds in Accordance with the Invention with Regard to PDE8

IC50 [nM]	SMILES
140	COc1ccc(Cn2c(=O)c3cc(OC(CF)CF)ccc3n(C3CCN(C=O)CC3)c2=O)cc1OC [No. 11, 4-[3-(3,4-dimethoxybenzyl)-6-[2-fluoro-1-(fluoromethyl)ethoxy]-2,4-dioxo-3,4-dihydroquinazolin-1(2H)-yl]piperidine-1-carbaldehyde]
15	N#Cc1cc(Cn2c(=O)c3cc(OC(CF)CF)ccc3n(C3CCN(C=O)CC3)c2=O)ccc1-c1ccccc1 [No. 294, 4-({6-[2-fluoro-1-(fluoromethyl)ethoxy]-1-(1-formylpiperidin-4-yl)-2,4-dioxo-1,4-dihydroquinazolin-3(2H)-yl}methyl)biphenyl-2-carbonitrile]

From patent publication US8846654B2, “Therapeutic applications in the cardiovascular field of quinazolinedione derivatives” (Sanofi, priority 2009, dated 2014)
